From ChEMBL document CHEMBL3045422, “Synthesis, characterization, and antimicrobial screening of some Mannich base sydnone derivatives” (2013)
Values after ≈ are worked out from the molar mass of the structure shown.

Key:
Type in all cases: functional
[1] = system: Staphylococcus aureus; assay: microbe, parasite or virus in culture
[2] = system: Bacillus subtilis; assay: microbe, parasite or virus in culture
[3] = system: Pseudomonas aeruginosa; assay: microbe, parasite or virus in culture; conditions: read-out: IZ
[4] = system: Pseudomonas aeruginosa; assay: microbe, parasite or virus in culture
[5] = system: Candida albicans; assay: microbe, parasite or virus in culture
[6] = system: Candida albicans; assay: Antifungal activity against Candida albicans at 300 ug/ml; conditions: read-out: IZ
[7] = system: Escherichia coli; assay: microbe, parasite or virus in culture
[8] = system: Staphylococcus aureus; assay: microbe, parasite or virus in culture; conditions: read-out: IZ
[9] = system: Escherichia coli; assay: microbe, parasite or virus in culture; conditions: read-out: IZ
[10] = system: Bacillus subtilis; assay: microbe, parasite or virus in culture; conditions: read-out: IZ

| Compound | MIC [1] | MIC [2] | zone of inhibition at 300 µg/mL [3] | MIC [4] | MIC [5] | zone of inhibition at 300 µg/mL [6] | MIC [7] | zone of inhibition at 300 µg/mL [8] | zone of inhibition at 300 µg/mL [9] | zone of inhibition at 300 µg/mL [10] |
| --- | --- | --- | --- | --- | --- | --- | --- | --- | --- | --- |
| COc1ccc(-[n+]2noc([O-])c2CNc2ccccc2[N+](=O)[O-])cc1 | 300 µg/mL (≈ 876 µM) | 200 µg/mL (≈ 584 µM) | 13 mm | 200 µg/mL (≈ 584 µM) | 200 µg/mL (≈ 584 µM) | 14 mm | 200 µg/mL (≈ 584 µM) | 11 mm | 14 mm | 13 mm |
| COc1ccc(-[n+]2noc([O-])c2CNc2nc3ccc(F)cc3s2)cc1 | 300 µg/mL (≈ 806 µM) | 200 µg/mL (≈ 537 µM) | 10 mm | 500 µg/mL (≈ 1340 µM) | 200 µg/mL (≈ 537 µM) | 13 mm | 300 µg/mL (≈ 806 µM) | 12 mm | 12 mm | 12 mm |
| COc1ccc(-[n+]2noc([O-])c2Cn2c(-c3ccc(OC)c([N+](=O)[O-])c3)nc3ccccc32)cc1 | 500 µg/mL (≈ 1060 µM) | 500 µg/mL (≈ 1060 µM) | 16 mm | 200 µg/mL (≈ 422 µM) | 200 µg/mL (≈ 422 µM) | 16 mm | 200 µg/mL (≈ 422 µM) | 10 mm | 14 mm | 10 mm |
| COc1ccc(-[n+]2noc([O-])c2Cn2c(-c3ccc(Cl)cc3)nc3ccccc32)cc1 | 300 µg/mL (≈ 693 µM) | 300 µg/mL (≈ 693 µM) | 10 mm | 500 µg/mL (≈ 1160 µM) | 200 µg/mL (≈ 462 µM) | 14 mm | 200 µg/mL (≈ 462 µM) | 12 mm | 15 mm | 12 mm |
| COc1ccc(-[n+]2noc([O-])c2Cn2c(-c3ccc(Cl)c(Cl)c3)nc3ccccc32)cc1 | 300 µg/mL (≈ 642 µM) | 200 µg/mL (≈ 428 µM) | 14 mm | 300 µg/mL (≈ 642 µM) | 200 µg/mL (≈ 428 µM) | 15 mm | 300 µg/mL (≈ 642 µM) | 11 mm | 13 mm | 12 mm |
| COc1ccc(-[n+]2noc([O-])c2CNc2ccccc2Cl)cc1 | 300 µg/mL (≈ 904 µM) | 300 µg/mL (≈ 904 µM) | 10 mm | 500 µg/mL (≈ 1510 µM) | 300 µg/mL (≈ 904 µM) | 12 mm | 300 µg/mL (≈ 904 µM) | 12 mm | 12 mm | 12 mm |
| COc1ccc(-[n+]2noc([O-])c2CNc2cc(Cl)ccc2Cl)cc1 | 300 µg/mL (≈ 819 µM) | 300 µg/mL (≈ 819 µM) | 10 mm | 500 µg/mL (≈ 1370 µM) | 300 µg/mL (≈ 819 µM) | 13 mm | 500 µg/mL (≈ 1370 µM) | 11 mm | 10 mm | 12 mm |
| CC1(C)S[C@@H]2[C@H](NC(=O)[C@H](N)c3ccccc3)C(=O)N2[C@H]1C(=O)O [AMPICILLIN] | 250 µg/mL (≈ 715 µM) | 100 µg/mL (≈ 286 µM) | 29 mm | 100 µg/mL (≈ 286 µM) |  |  | 100 µg/mL (≈ 286 µM) | 30 mm | 31 mm | 26 mm |
| COc1ccc(-[n+]2noc([O-])c2CNc2nc3ccc([N+](=O)[O-])cc3s2)cc1 | 80 µg/mL (≈ 200 µM) | 40 µg/mL (≈ 100 µM) | 16 mm | 200 µg/mL (≈ 501 µM) | 100 µg/mL (≈ 250 µM) | 17 mm | 300 µg/mL (≈ 751 µM) | 16 mm | 12 mm | 18 mm |
| COc1ccc(-[n+]2noc([O-])c2CNc2nc3ccc(Br)cc3s2)cc1 | 100 µg/mL (≈ 231 µM) | 100 µg/mL (≈ 231 µM) | 12 mm | 200 µg/mL (≈ 462 µM) | 80 µg/mL (≈ 185 µM) | 21 mm | 300 µg/mL (≈ 692 µM) | 18 mm | 11 mm | 15 mm |
| O=C(O)c1cn(C2CC2)c2cc(N3CCNCC3)c(F)cc2c1=O [CIPROFLOXACIN] | 50 µg/mL (≈ 151 µM) |  | 23 mm |  |  |  | 25 µg/mL (≈ 75.4 µM) | 30 mm |  | 31 mm |
| CCOc1ccc(NCc2c([O-])on[n+]2-c2ccc(OC)cc2)cc1 | 40 µg/mL (≈ 117 µM) | 80 µg/mL (≈ 234 µM) | 15 mm | 100 µg/mL (≈ 293 µM) | 200 µg/mL (≈ 586 µM) | 16 mm | 200 µg/mL (≈ 586 µM) | 17 mm | 13 mm | 16 mm |
| COc1ccc(-c2nc3ccccc3n2Cc2c([O-])on[n+]2-c2ccc(OC)cc2)cc1 | 300 µg/mL (≈ 700 µM) | 200 µg/mL (≈ 467 µM) | 12 mm | 300 µg/mL (≈ 700 µM) | 200 µg/mL (≈ 467 µM) | 14 mm | 300 µg/mL (≈ 700 µM) | 11 mm | 15 mm | 12 mm |
| COc1ccc(-[n+]2noc([O-])c2CNc2nc3ccc(OC)cc3s2)cc1 | 100 µg/mL (≈ 260 µM) | 200 µg/mL (≈ 520 µM) | 14 mm | 200 µg/mL (≈ 520 µM) | 100 µg/mL (≈ 260 µM) | 15 mm | 200 µg/mL (≈ 520 µM) | 14 mm | 13 mm | 12 mm |
| COc1ccc(-[n+]2noc([O-])c2CNc2ccc(F)cc2)cc1 | 200 µg/mL (≈ 634 µM) | 200 µg/mL (≈ 634 µM) | 11 mm | 300 µg/mL (≈ 951 µM) | 100 µg/mL (≈ 317 µM) | 17 mm | 100 µg/mL (≈ 317 µM) | 14 mm | 17 mm | 16 mm |
| CN[C@@H]1[C@H](O[C@H]2[C@H](O[C@H]3[C@H](O)[C@@H](O)[C@H](N=C(N)N)[C@@H](O)[C@@H]3N=C(N)N)O[C@@H](C)[C@]2(O)C=O)O[C@@H](CO)[C@H](O)[C@H]1O [STREPTOMYCIN] | 0.125 µg/mL (≈ 0.215 µM) | 0.25 µg/mL (≈ 0.43 µM) | 34 mm | 0.5 µg/mL (≈ 0.86 µM) |  |  | 1 µg/mL (≈ 1.72 µM) | 40 mm | 28 mm | 40 mm |
| COc1ccc(NCc2c([O-])on[n+]2-c2ccc(OC)cc2)cc1 | 80 µg/mL (≈ 244 µM) | 100 µg/mL (≈ 305 µM) | 14 mm | 100 µg/mL (≈ 305 µM) | 200 µg/mL (≈ 611 µM) | 20 mm | 200 µg/mL (≈ 611 µM) | 16 mm | 12 mm | 18 mm |
| COc1ccc(-[n+]2noc([O-])c2Cn2cnc3ccccc32)cc1 | 300 µg/mL (≈ 931 µM) | 300 µg/mL (≈ 931 µM) | 10 mm | 500 µg/mL (≈ 1550 µM) | 300 µg/mL (≈ 931 µM) | 12 mm | 500 µg/mL (≈ 1550 µM) | 11 mm | 10 mm | 11 mm |
| OC(Cn1cncn1)(Cn1cncn1)c1ccc(F)cc1F [FLUCONAZOLE] |  |  |  |  | 100 µg/mL (≈ 327 µM) | 25 mm |  |  |  |  |
| CC1(C)S[C@@H]2[C@H](NC(=O)Cc3ccccc3)C(=O)N2[C@H]1C(=O)O [PENICILLIN G] | 0.125 µg/mL (≈ 0.374 µM) | 0.25 µg/mL (≈ 0.748 µM) | 38 mm | 0.25 µg/mL (≈ 0.748 µM) |  |  | 0.5 µg/mL (≈ 1.5 µM) | 45 mm | 30 mm | 35 mm |
